In US8415469B2, “Compounds and methods for kinase modulation, and indications therefor” (Plexxikon Inc., priority 2005, dated 2013):

What was measured:
Format in all cases: biochemical
Kit = molecular target: T1, Kit (Homo sapiens, UniProt P10721); assay: AlphaScreen kinase assay, Kit; settings: read-out: IC50, activity toward kinase Kit
T1 construct: P1332.N6 BI PTP KIT M552-K948-X COD; His6 (N); made in house; host or cells: E. coli (PTP1B co-expressed)

Fms = molecular target: T2, Fms (Homo sapiens, UniProt P07333); assay: AlphaScreen kinase assay, Fms; settings: read-out: IC50, activity toward kinase Fms
T2 construct: purchased Upstate Biotechnology
T2 sequence (P07333 20-972): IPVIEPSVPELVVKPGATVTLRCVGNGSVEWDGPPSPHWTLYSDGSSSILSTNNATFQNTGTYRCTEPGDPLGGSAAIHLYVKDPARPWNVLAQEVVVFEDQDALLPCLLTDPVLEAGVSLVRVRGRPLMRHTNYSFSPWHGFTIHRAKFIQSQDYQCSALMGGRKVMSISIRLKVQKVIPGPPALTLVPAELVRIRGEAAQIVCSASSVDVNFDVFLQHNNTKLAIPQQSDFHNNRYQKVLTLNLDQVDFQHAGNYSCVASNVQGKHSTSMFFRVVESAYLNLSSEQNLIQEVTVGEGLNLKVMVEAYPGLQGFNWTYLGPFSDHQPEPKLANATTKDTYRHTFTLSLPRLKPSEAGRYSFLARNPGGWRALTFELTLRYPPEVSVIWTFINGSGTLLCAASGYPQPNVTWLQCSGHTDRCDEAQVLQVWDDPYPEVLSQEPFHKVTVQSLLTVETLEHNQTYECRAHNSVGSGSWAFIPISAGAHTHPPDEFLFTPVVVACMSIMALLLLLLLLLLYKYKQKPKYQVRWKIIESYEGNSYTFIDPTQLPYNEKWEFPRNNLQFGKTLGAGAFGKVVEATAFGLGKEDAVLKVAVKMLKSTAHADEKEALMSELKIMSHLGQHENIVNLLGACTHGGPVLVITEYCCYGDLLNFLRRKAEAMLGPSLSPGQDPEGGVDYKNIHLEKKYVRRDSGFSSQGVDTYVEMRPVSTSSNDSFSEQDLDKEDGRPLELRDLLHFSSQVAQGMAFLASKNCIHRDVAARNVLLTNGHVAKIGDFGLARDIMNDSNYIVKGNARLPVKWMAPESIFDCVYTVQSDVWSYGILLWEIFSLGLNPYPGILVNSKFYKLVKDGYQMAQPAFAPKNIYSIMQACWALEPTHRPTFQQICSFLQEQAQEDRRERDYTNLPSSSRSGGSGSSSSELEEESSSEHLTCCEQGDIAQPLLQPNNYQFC

Kdr = molecular target: T3, Kdr (Homo sapiens, UniProt P35968); assay: Z'-Lyte FRET kinase assay (Invitrogen), Kdr; settings: read-out: IC50, activity toward kinase Kdr
T3 construct: purchased Invitrogen (assay run by Invitrogen)
T3 sequence (P35968 20-1356): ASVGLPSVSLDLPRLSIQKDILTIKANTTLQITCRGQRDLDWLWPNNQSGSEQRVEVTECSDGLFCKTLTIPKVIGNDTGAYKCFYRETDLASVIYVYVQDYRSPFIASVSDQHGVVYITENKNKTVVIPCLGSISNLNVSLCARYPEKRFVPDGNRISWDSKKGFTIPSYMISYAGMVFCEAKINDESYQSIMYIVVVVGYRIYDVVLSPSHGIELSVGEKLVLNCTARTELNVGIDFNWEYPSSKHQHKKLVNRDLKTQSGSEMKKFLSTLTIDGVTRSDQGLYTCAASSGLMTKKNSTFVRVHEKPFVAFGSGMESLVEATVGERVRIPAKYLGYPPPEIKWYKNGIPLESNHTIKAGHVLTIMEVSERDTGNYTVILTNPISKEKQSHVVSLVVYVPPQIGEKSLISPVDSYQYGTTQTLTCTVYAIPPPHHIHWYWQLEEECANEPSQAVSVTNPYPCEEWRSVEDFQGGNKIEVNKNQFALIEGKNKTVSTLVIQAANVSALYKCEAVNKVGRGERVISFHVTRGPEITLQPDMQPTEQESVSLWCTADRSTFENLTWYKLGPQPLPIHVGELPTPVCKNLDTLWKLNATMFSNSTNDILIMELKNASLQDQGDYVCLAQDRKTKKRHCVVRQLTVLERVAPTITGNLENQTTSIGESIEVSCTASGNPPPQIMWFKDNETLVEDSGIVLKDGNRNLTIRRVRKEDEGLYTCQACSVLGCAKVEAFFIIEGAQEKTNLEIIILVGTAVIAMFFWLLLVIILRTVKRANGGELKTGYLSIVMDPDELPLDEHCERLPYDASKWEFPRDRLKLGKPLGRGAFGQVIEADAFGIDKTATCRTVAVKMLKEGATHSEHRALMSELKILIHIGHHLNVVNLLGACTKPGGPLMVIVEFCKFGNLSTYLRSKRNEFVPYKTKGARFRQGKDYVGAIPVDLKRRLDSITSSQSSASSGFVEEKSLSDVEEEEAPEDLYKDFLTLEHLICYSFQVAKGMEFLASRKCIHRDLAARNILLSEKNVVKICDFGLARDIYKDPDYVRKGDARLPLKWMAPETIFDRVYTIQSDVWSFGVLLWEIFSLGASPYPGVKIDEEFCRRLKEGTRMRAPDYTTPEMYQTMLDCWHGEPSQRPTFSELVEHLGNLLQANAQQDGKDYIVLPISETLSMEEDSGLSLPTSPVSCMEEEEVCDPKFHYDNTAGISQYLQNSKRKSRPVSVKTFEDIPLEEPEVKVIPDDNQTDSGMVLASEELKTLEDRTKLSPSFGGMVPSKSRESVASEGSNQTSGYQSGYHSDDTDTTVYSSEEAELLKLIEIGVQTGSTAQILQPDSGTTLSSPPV

FGFR1 = molecular target: T4, FGFR1 (Homo sapiens, UniProt P11362, C488A/C584S); assay: AlphaScreen kinase assay, FGFR1; settings: read-out: IC50, activity toward kinase FGFR
T4 construct: P1351.pET N6 BI-PTP FGFR A458-E765-X C488A, C584S; made in house; host or cells: E. coli (PTP1B co-expressed)
T4 sequence (P11362 458-765 C488A/C584S): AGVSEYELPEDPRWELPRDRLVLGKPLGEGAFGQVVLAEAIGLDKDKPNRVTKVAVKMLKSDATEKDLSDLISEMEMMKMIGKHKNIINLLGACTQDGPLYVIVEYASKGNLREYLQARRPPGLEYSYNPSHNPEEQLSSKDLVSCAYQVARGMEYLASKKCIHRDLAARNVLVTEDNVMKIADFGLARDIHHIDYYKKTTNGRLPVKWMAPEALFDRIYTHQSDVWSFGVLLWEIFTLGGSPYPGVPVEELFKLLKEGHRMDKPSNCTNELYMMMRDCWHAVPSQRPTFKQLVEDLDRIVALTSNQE

Btk = molecular target: T5, Btk (Homo sapiens, UniProt Q06187); assay: Z'-Lyte FRET kinase assay (Invitrogen), Btk; settings: read-out: IC50, activity toward kinase Btk
T5 construct: purchased Invitrogen (assay run by Invitrogen)
T5 sequence (Q06187 whole entry): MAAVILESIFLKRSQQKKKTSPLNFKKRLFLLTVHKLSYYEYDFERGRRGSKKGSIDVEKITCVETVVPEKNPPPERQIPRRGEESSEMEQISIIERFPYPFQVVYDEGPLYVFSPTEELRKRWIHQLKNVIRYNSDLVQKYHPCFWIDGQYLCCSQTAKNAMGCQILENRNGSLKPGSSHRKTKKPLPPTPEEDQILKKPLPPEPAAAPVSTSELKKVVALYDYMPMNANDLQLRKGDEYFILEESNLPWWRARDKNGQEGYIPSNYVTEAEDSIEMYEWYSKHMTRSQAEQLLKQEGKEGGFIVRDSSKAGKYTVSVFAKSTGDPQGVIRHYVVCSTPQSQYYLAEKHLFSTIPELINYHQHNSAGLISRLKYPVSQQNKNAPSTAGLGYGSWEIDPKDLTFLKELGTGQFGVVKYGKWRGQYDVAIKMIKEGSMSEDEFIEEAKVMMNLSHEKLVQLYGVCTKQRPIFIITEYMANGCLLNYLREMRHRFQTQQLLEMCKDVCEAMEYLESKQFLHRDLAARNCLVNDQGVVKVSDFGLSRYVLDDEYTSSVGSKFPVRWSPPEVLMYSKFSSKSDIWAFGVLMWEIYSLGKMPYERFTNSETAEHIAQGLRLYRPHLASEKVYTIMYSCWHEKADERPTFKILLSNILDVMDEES

Stk6 = molecular target: T6, Stk6 (Homo sapiens, UniProt O14965); assay: Z'-Lyte FRET kinase assay (Invitrogen), Stk6; settings: read-out: IC50, activity toward kinase Stk6
T6 construct: purchased Invitrogen (Carlsbad, Calif.), screening service
T6 sequence (O14965 1-403): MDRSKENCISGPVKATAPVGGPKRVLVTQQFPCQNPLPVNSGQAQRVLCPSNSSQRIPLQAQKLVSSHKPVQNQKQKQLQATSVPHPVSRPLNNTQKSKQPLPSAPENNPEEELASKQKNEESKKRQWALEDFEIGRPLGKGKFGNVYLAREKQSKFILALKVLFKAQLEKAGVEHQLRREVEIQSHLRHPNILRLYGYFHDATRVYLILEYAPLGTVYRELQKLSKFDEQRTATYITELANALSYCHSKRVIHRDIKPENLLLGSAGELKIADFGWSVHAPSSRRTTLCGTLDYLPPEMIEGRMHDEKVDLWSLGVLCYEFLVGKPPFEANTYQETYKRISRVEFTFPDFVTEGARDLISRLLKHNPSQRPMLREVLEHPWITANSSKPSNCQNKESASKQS

Fak = molecular target: T7, Fak (Homo sapiens, UniProt Q05397); assay: AlphaScreen kinase assay, Fak; settings: read-out: IC50, activity toward kinase Fak
T7 construct: P1358.pFastBacHtb FAK S411-Q686-X; His6 with pFastBacHTb leader (TEV site) (N); made in house; host or cells: Sf9 (baculovirus)
T7 sequence (Q05397 411-686): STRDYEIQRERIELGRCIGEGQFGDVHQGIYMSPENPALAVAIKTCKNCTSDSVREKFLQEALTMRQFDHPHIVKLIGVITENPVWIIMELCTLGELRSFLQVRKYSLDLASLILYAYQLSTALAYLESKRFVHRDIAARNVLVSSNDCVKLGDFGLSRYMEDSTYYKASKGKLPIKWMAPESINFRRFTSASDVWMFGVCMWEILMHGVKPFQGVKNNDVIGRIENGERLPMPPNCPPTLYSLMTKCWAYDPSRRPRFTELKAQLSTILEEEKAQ

T1 sequence (P10721 with tags, fused parts or gaps): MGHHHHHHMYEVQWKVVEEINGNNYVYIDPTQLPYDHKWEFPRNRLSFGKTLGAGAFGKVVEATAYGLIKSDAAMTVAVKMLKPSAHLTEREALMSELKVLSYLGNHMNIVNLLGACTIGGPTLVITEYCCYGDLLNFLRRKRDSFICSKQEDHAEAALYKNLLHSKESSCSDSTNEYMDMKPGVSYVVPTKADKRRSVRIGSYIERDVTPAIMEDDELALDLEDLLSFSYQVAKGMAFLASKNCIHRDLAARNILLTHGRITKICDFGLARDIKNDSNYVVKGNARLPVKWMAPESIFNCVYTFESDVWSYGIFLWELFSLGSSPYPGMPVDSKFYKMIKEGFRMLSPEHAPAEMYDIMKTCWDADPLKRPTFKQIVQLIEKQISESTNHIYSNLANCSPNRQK

Structure (SMILES) | IC50 (Kit) | IC50 (Fms) | IC50 (Kdr) | IC50 (FGFR1) | IC50 (Btk) | IC50 (Stk6) | IC50 (Fak)
O=C(c1cc(O)ccc1F)c1c[nH]c2ncccc12 [Compound P-0005] | ≤ 10 µM | ≤ 10 µM | ≤ 10 µM | ≤ 10 µM | ≤ 10 µM | – | –
O=C(O)/C=C/c1cccc(-c2cnc3[nH]cc(C(=O)c4cc(O)ccc4F)c3c2)c1 [Compound P-0010] | – | ≤ 10 µM | – | ≤ 10 µM | ≤ 10 µM | ≤ 10 µM | –
O=C(c1cccc(O)c1)c1c[nH]c2ncccc12 [Compound P-0011] | ≤ 10 µM | – | ≤ 10 µM | ≤ 10 µM | ≤ 10 µM | ≤ 10 µM | –
O=C(c1cccc(O)c1)c1c[nH]c2nccc(Cl)c12 [Compound P-0012] | ≤ 10 µM | ≤ 10 µM | ≤ 10 µM | ≤ 10 µM | ≤ 10 µM | – | –
Cc1ccccc1C(=O)c1c[nH]c2nccc(-c3ccc(C(N)=O)cc3)c12 [Compound P-0017] | ≤ 10 µM | – | ≤ 10 µM | ≤ 10 µM | ≤ 10 µM | – | –
O=C(c1ccc(O)cc1Cl)c1c[nH]c2ncccc12 [Compound P-0021] | ≤ 10 µM | ≤ 10 µM | ≤ 10 µM | ≤ 10 µM | ≤ 10 µM | – | –
O=C(c1cccc(O)c1)c1c[nH]c2ncc(Nc3ccccc3)cc12 [Compound P-0025] | – | ≤ 10 µM | ≤ 10 µM | ≤ 10 µM | ≤ 10 µM | – | ≤ 10 µM
Nc1ccnc2[nH]cc(C(=O)c3ccccc3)c12 [Compound P-0029] | ≤ 10 µM | – | ≤ 10 µM | ≤ 10 µM | ≤ 10 µM | ≤ 10 µM | –
O=C(c1cc(O)ccc1F)c1c[nH]c2ncc(-c3cccs3)cc12 [Compound P-0032] | ≤ 10 µM | ≤ 10 µM | ≤ 10 µM | ≤ 10 µM | – | ≤ 10 µM | ≤ 10 µM
O=C(O)/C=C/c1cccc(-c2cnc3[nH]cc(C(=O)c4ccccc4F)c3c2)c1 [Compound P-0033] | ≤ 10 µM | ≤ 10 µM | ≤ 10 µM | ≤ 10 µM | ≤ 10 µM | ≤ 10 µM | –
O=C(c1cccc(O)c1F)c1c[nH]c2ncc(-c3ccccc3)cc12 [Compound P-0036, (2-fluoro-3-hydroxy-phenyl)-(5-phenyl-1H-pyrrolo[2,3-b]pyridin-3-yl)-methanone] | ≤ 10 µM | ≤ 10 µM | – | ≤ 10 µM | – | – | ≤ 10 µM
Cc1ccc(F)cc1C(=O)c1c[nH]c2ncc(-c3ccc(C(N)=O)cc3)cc12 [Compound P-0050] | ≤ 10 µM | – | ≤ 10 µM | ≤ 10 µM | ≤ 10 µM | – | –
Cc1c(O)cccc1C(=O)c1c[nH]c2ncc(Br)cc12 [Compound P-0055, (5-Bromo-1H-pyrrolo[2,3-b]pyridin-3-yl)-(3-hydroxy-2-methyl-phenyl)-methanone] | – | – | ≤ 10 µM | ≤ 10 µM | ≤ 10 µM | – | ≤ 10 µM
Oc1cccc(Cc2c[nH]c3ncc(-c4ccsc4)cc23)c1 [Compound P-0056] | ≤ 10 µM | – | ≤ 10 µM | ≤ 10 µM | – | ≤ 10 µM | –
O=C(c1cccc(O)c1F)c1c[nH]c2ncc(Br)cc12 [Compound P-0067, (5-bromo-1H-pyrrolo[2,3-b]pyridin-3-yl)-(2-fluoro-3-hydroxy-phenyl)-methanone] | ≤ 10 µM | ≤ 10 µM | ≤ 10 µM | ≤ 10 µM | ≤ 10 µM | – | ≤ 10 µM
O=C(c1cc(O)ccc1F)c1c[nH]c2ncc(Br)cc12 [Compound P-0068, (5-Bromo-1H-pyrrolo[2,3-b]pyridin-3-yl)-(2-fluoro-5-hydroxy-phenyl)-methanone] | – | ≤ 10 µM | ≤ 10 µM | ≤ 10 µM | ≤ 10 µM | – | –
Cc1ccc(S(=O)(=O)NCc2c[nH]c3nccc(-c4cccc(C#N)c4)c23)cc1 [Compound P-0072] | ≤ 10 µM | ≤ 10 µM | – | ≤ 10 µM | ≤ 10 µM | – | –
Oc1cc(O)cc(Cc2c[nH]c3ncc(-c4ccsc4)cc23)c1 [Compound P-0093] | ≤ 10 µM | ≤ 10 µM | ≤ 10 µM | ≤ 10 µM | ≤ 10 µM | ≤ 10 µM | –
O=C(c1ccccc1F)c1c[nH]c2ncc(-c3ccsc3)cc12 [Compound P-0134] | ≤ 10 µM | ≤ 10 µM | ≤ 10 µM | ≤ 10 µM | ≤ 10 µM | – | –
O=C(c1cccc(O)c1)c1c[nH]c2ncc(-c3cccs3)cc12 [Compound P-0196] | ≤ 10 µM | ≤ 10 µM | ≤ 10 µM | ≤ 10 µM | – | – | ≤ 10 µM
COc1cc(OC)cc(C(=O)c2c[nH]c3ncc(-c4cccc(NS(C)(=O)=O)c4)cc23)c1 [Compound P-1426, N-{3-[3-(3,5-Dimethoxy-benzoyl)-1H-pyrrolo[2,3-b]pyridin-5-yl]-phenyl}-methanesulfonamide] | ≤ 10 µM | ≤ 10 µM | ≤ 10 µM | ≤ 10 µM | ≤ 10 µM | ≤ 10 µM | –

Further lines, results first:

IC50 (Kit) | IC50 (Fms) | IC50 (Kdr) | IC50 (FGFR1) | IC50 (Btk) | IC50 (Stk6) | IC50 (Fak) | Structure (SMILES)
≤ 10 µM | ≤ 10 µM | ≤ 10 µM | ≤ 10 µM | ≤ 10 µM | ≤ 10 µM | ≤ 10 µM | CCCS(=O)(=O)Nc1ccc(F)c(C(=O)c2c[nH]c3ncccc23)c1F [Compound P-0007, Propane-1-sulfonic acid [2,4-difluoro-3-(1H-pyrrolo[2,3-b]pyridine-3-carbonyl)-phenyl]-amide]
≤ 10 µM | – | ≤ 10 µM | ≤ 10 µM | ≤ 10 µM | ≤ 10 µM | – | Cc1ccc(F)cc1C(=O)c1c[nH]c2ncc(-c3cccc(N)c3)cc12 [Compound P-0040]
– | ≤ 10 µM | ≤ 10 µM | ≤ 10 µM | ≤ 10 µM | ≤ 10 µM | ≤ 10 µM | O=C(c1cc(O)ccc1F)c1c[nH]c2ncc(-c3ccccc3)cc12 [Compound P-0045]
– | ≤ 10 µM | ≤ 10 µM | – | ≤ 10 µM | – | – | O=C(c1cccc(O)c1)c1c[nH]c2ncc(-c3cccnc3)cc12 [Compound P-0048]
≤ 10 µM | ≤ 10 µM | ≤ 10 µM | ≤ 10 µM | ≤ 10 µM | – | – | COc1ccc(F)c(C(=O)c2c[nH]c3ncc(-c4cccnc4)cc23)c1 [Compound P-0090]
≤ 10 µM | ≤ 10 µM | ≤ 10 µM | ≤ 10 µM | ≤ 10 µM | – | ≤ 10 µM | CS(=O)(=O)c1cccc(-c2cnc3[nH]cc(C(=O)c4c(F)ccc(F)c4F)c3c2)c1 [Compound P-0102, [5-(3-Methanesulfonyl-phenyl)-1H-pyrrolo[2,3-b]pyridin-3-yl]-(2,3,6-trifluoro-phenyl)-methanone]
≤ 10 µM | ≤ 10 µM | – | ≤ 10 µM | ≤ 10 µM | – | ≤ 10 µM | CN(C)S(=O)(=O)Nc1ccc(F)c(Cc2c[nH]c3ncc(-c4cccnc4)cc23)c1F [Compound P-0166]
≤ 10 µM | ≤ 10 µM | – | ≤ 10 µM | – | – | – | CCCS(=O)(=O)Nc1ccc(F)c(C(=O)c2c[nH]c3ncc(-c4ccccc4)cc23)c1F [Compound P-0636, Propane-1-sulfonic acid [2,4-difluoro-3-(5-phenyl-1H-pyrrolo[2,3-b]pyridine-3-carbonyl)-phenyl]-amide]
≤ 10 µM | ≤ 10 µM | ≤ 10 µM | ≤ 10 µM | – | – | ≤ 10 µM | CCCCNC(=O)Nc1ccc(F)c(C(=O)c2c[nH]c3ncc(-c4cccnc4)cc23)c1F [Compound P-1318, 1-Butyl-3-[2,4-difluoro-3-(5-pyridin-3-yl-1H-pyrrolo[2,3-b]pyridine-3-carbonyl)-phenyl]-urea]
≤ 10 µM | ≤ 10 µM | – | ≤ 10 µM | ≤ 10 µM | ≤ 10 µM | ≤ 10 µM | COc1cccc(C(=O)c2c[nH]c3ncc(-c4cccc(NC(C)=O)c4)cc23)c1F [Compound P-1336, N-{3-[3-(2-Fluoro-3-methoxy-benzoyl)-1H-pyrrolo[2,3-b]pyridin-5-yl]-phenyl}-acetamide]
